# Assay results: PubChem BioAssay (NCI)
# “And” between values parts separate entries of the source, which are not always exact repeats. Equal values may be shown once.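 1) Cells in 96-well plates. 2) Compound, 48 h, 5 concentrations. 3) Linear interpolation between surrounding doses. 4) Unreached endpoint = highest concentration. GI50 marks 50% less growth. TGI denotes the concentration required for complete inhibition of growth.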
# Legend:
# Experiment in all cases: growth of human tumour cells (NCI), 48 h
# [1] = tested on: 786-0 renal
# [2] = tested on: A498 renal
# [3] = tested on: A549 NSCLC
# [4] = tested on: ACHN renal
# [5] = tested on: BT-549 breast
# [6] = tested on: CAKI-1 renal
# [7] = tested on: CCRF-CEM leukemia
# [8] = tested on: COLO 205 colon
# [9] = tested on: DU-145 prostate
# [10] = tested on: EKVX NSCLC
# [11] = tested on: HCC-2998 colon
# [12] = tested on: HCT-116 colon
# [13] = tested on: HCT-15 colon
# [14] = tested on: HL-60(TB) leukemia
# [15] = tested on: HOP-62 NSCLC
# [16] = tested on: HOP-92 NSCLC
# [17] = tested on: HS 578T breast
# [18] = tested on: HT29 colon
# [19] = tested on: IGROV1 ovarian
# [20] = tested on: K-562 leukemia
# [21] = tested on: KM12 colon
# [22] = tested on: LOX IMVI melanoma
# [23] = tested on: M14 melanoma
# [24] = tested on: MALME-3M melanoma
# [25] = tested on: MCF7 breast
# [26] = tested on: MDA-MB-231 breast
# [27] = tested on: MDA-MB-435
# [28] = tested on: MOLT-4 leukemia
# [29] = tested on: NCI-H226 lung
# [30] = tested on: NCI-H23 lung
# [31] = tested on: NCI-H460 lung
# [32] = tested on: NCI-H522 lung
# [33] = tested on: NCI/ADR-RES ovarian
# [34] = tested on: OVCAR-3 ovarian
# [35] = tested on: OVCAR-4 ovarian
# [36] = tested on: OVCAR-5 ovarian
# [37] = tested on: OVCAR-8 ovarian
# [38] = tested on: PC-3 prostate
# [39] = tested on: RPMI-8226 leukemia
# [40] = tested on: RXF 393 renal
# [41] = tested on: SF-268 CNS
# [42] = tested on: SF-295 CNS
# [43] = tested on: SF-539 CNS
# [44] = tested on: SK-MEL-2 melanoma
# [45] = tested on: SK-MEL-28 melanoma
# [46] = tested on: SK-MEL-5 melanoma
# [47] = tested on: SK-OV-3 ovarian
# [48] = tested on: SN12C renal
# [49] = tested on: SNB-19 CNS
# [50] = tested on: SNB-75 CNS
# [51] = tested on: SR leukemia
# [52] = tested on: SW-620 colon
# [53] = tested on: T-47D breast
# [54] = tested on: TK-10 renal
# [55] = tested on: U251 CNS
# [56] = tested on: UACC-257 melanoma
# [57] = tested on: UACC-62 melanoma
# [58] = tested on: UO-31 renal
smiles,measurement,setting,value
COc1cc(O)c2c(c1)/C=C/C[C@H](O)[C@H](O)C(=O)/C=C\C[C@H](C)OC2=O,GI50,[1],3.88 µM and 3.81 µM
same,TGI,[1],8.49 µM and 15.8 µM
same,GI50,[2],4.93 µM and 4.48 µM
same,TGI,[2],32.3 µM and 67.7 µM
same,GI50,[3],4.77 µM and 34.8 µM
same,TGI,[3],33.5 µM and > 100 µM
same,GI50,[4],0.877 µM and 1.74 µM
same,TGI,[4],5.61 µM and 14.4 µM
same,TGI,[5],3.28 µM and 13.1 µM
same,GI50,[6],0.514 µM and 0.403 µM
same,TGI,[6],6.31 µM and 12.7 µM
same,GI50,[7],1.01 µM and 2.42 µM
same,TGI,[7],11.4 µM and 9.13 µM
same,GI50,[8],0.0614 µM and 0.194 µM
same,TGI,[8],3.98 µM and 12 µM
same,GI50,[9],2.09 µM and 5.28 µM
same,TGI,[9],13.8 µM and 18.6 µM
same,GI50,[10],3.01 µM and 15.3 µM
same,TGI,[10],10.7 µM and 52.2 µM
same,GI50,[11],2.46 µM and 9.46 µM
same,TGI,[11],7.09 µM and 23.3 µM
same,GI50,[12],0.515 µM and 0.601 µM
same,TGI,[12],3.66 µM and 10 µM
same,GI50,[13],0.618 µM and 2.17 µM
same,TGI,[13],4.64 µM and 12.4 µM
same,GI50,[14],0.218 µM and 0.205 µM
same,TGI,[14],4.27 µM and 2.55 µM
same,GI50,[15],4.14 µM and 14.5 µM
same,TGI,[15],10.9 µM and 40.2 µM
same,GI50,[16],0.165 µM and 0.223 µM
same,TGI,[16],3.1 µM and 0.973 µM
same,GI50,[17],3.91 µM and 2.72 µM
same,TGI,[17],28.5 µM and 13.1 µM
same,GI50,[18],0.0462 µM and 0.0821 µM
same,TGI,[18],4.35 µM and 10.3 µM
same,GI50,[19],3.74 µM and 2.64 µM
same,TGI,[19],16.9 µM and 20.9 µM
same,GI50,[20],1.11 µM and 2.15 µM
same,TGI,[20],27 µM and 12.3 µM
same,GI50,[21],1.54 µM and 5.53 µM
same,TGI,[21],6.87 µM and 24.8 µM
same,GI50,[22],0.477 µM and 1.04 µM
same,TGI,[22],3.59 µM and 4.44 µM
same,GI50,[23],0.022 µM and 0.05 µM
same,TGI,[23],1.42 µM and 10.3 µM
same,GI50,[24],0.00579 µM and 0.0157 µM
same,TGI,[24],0.0926 µM and 0.0572 µM
same,GI50,[25],0.891 µM and 2.89 µM
same,TGI,[25],4.13 µM and 10.9 µM
same,TGI,[26],7.26 µM and 27 µM
same,GI50,[27],0.157 µM and 0.171 µM
same,TGI,[27],6.56 µM and 2.55 µM
same,GI50,[28],0.763 µM and 2.25 µM
same,TGI,[28],3.75 µM and 8 µM
same,GI50,[29],5.45 µM
same,TGI,[29],33.5 µM
same,GI50,[30],0.559 µM
same,TGI,[30],4.56 µM
same,GI50,[31],2.29 µM and 3.34 µM
same,TGI,[31],33.5 µM and 17.2 µM
same,GI50,[32],0.357 µM and 2.05 µM
same,TGI,[32],4.01 µM and 12.7 µM
same,GI50,[33],1.92 µM and 4.11 µM
same,TGI,[33],9.55 µM and 31.5 µM
same,GI50,[34],0.991 µM and 2.88 µM
same,TGI,[34],7.27 µM and 14.2 µM
same,GI50,[35],3.55 µM and 2.52 µM
same,TGI,[35],33.5 µM and 23.3 µM
same,GI50,[36],3.61 µM and 4.27 µM
same,TGI,[36],10.3 µM and 22.6 µM
same,GI50,[37],1.44 µM and 2.87 µM
same,TGI,[37],7.22 µM and 14.6 µM
same,GI50,[38],4.62 µM and 9.91 µM
same,TGI,[38],15 µM and 28.7 µM
same,GI50,[39],0.815 µM and 1.59 µM
same,TGI,[39],4.66 µM and 7.41 µM
same,GI50,[40],1.07 µM and 2.01 µM
same,TGI,[40],5.7 µM and 7.21 µM
same,GI50,[41],4.7 µM and 12.8 µM
same,TGI,[41],33.5 µM and 55.7 µM
same,GI50,[42],4.32 µM and 18.6 µM
same,TGI,[42],11.1 µM and 45 µM
same,GI50,[43],1.92 µM and 3.12 µM
same,TGI,[43],6.89 µM and 15.3 µM
same,GI50,[44],2.61 µM and 2.81 µM
same,TGI,[44],9.12 µM and 13.7 µM
same,GI50,[45],0.0148 µM and 0.0458 µM
same,TGI,[45],3.52 µM and 1.04 µM
same,GI50,[46],0.331 µM and 2.69 µM
same,TGI,[46],4.53 µM and 14.4 µM
same,GI50,[47],5.73 µM and 17.9 µM
same,TGI,[47],21.6 µM and 80.3 µM
same,GI50,[48],1.35 µM and 4.12 µM
same,TGI,[48],9.17 µM and 23.7 µM
same,GI50,[49],5.71 µM and 14.9 µM
same,TGI,[49],23.5 µM and 73.3 µM
same,GI50,[50],5.72 µM and 3.57 µM
same,TGI,[50],17 µM and 31 µM
same,GI50,[51],0.358 µM and 0.671 µM
same,TGI,[51],5.94 µM and 6.49 µM
same,GI50,[52],0.224 µM and 0.469 µM
same,TGI,[52],8.33 µM and 10.3 µM
same,GI50,[53],1.18 µM and 2.66 µM
same,TGI,[53],11.5 µM and 21.3 µM
same,GI50,[54],1.86 µM and 5.29 µM
same,TGI,[54],7.31 µM and 31.1 µM
same,GI50,[55],1.8 µM and 11.2 µM
same,TGI,[55],6.99 µM and 23.5 µM
same,GI50,[56],0.0252 µM and 0.139 µM
same,TGI,[56],1.74 µM and 1.27 µM
same,GI50,[57],0.0173 µM and 0.113 µM
same,TGI,[57],2.89 µM and 9.52 µM
same,GI50,[58],0.237 µM and 0.326 µM
same,TGI,[58],5.42 µM and 11.9 µM
